Test results from PubChem BioAssay (NCI).
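In this assay, cells in 96-well plates receive the compound at five concentrations for 48 hours. Endpoints are linearly interpolated between the surrounding concentrations. At the GI50, growth is halved. TGI is the concentration that stops growth completely.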 Where a SMILES comes first, the peptide text is derived from it. [ ]: non-standard residue; d: D form. ξ: configuration not given here. ξThz(5,5-Me2) = CC1(C)SCNC1C(=O)O

Experiments:
Experiment in all cases: NCI-60 cell line screen, 48 h
HOP-92 NSCLC = tested on: HOP-92 NSCLC
NCI-H226 lung = tested on: NCI-H226 lung
NCI-H23 lung = tested on: NCI-H23 lung
UACC-257 melanoma = tested on: UACC-257 melanoma
HL-60(TB) leukemia = tested on: HL-60(TB) leukemia
DU-145 prostate = tested on: DU-145 prostate
786-0 renal = tested on: 786-0 renal
M14 melanoma = tested on: M14 melanoma
LOX IMVI melanoma = tested on: LOX IMVI melanoma
SNB-75 CNS = tested on: SNB-75 CNS
U251 CNS = tested on: U251 CNS
EKVX NSCLC = tested on: EKVX NSCLC
T-47D breast = tested on: T-47D breast
UACC-62 melanoma = tested on: UACC-62 melanoma
NCI/ADR-RES ovarian = tested on: NCI/ADR-RES ovarian
MDA-MB-231 breast = tested on: MDA-MB-231 breast
COLO 205 colon = tested on: COLO 205 colon
SNB-19 CNS = tested on: SNB-19 CNS
HCT-15 colon = tested on: HCT-15 colon
HT29 colon = tested on: HT29 colon
ACHN renal = tested on: ACHN renal
A498 renal = tested on: A498 renal
OVCAR-8 ovarian = tested on: OVCAR-8 ovarian
HCT-116 colon = tested on: HCT-116 colon
MCF7 breast = tested on: MCF7 breast
SK-OV-3 ovarian = tested on: SK-OV-3 ovarian
NCI-H460 lung = tested on: NCI-H460 lung
SF-539 CNS = tested on: SF-539 CNS
MALME-3M melanoma = tested on: MALME-3M melanoma
PC-3 prostate = tested on: PC-3 prostate
CAKI-1 renal = tested on: CAKI-1 renal
OVCAR-4 ovarian = tested on: OVCAR-4 ovarian
SN12C renal = tested on: SN12C renal
SF-295 CNS = tested on: SF-295 CNS
HCC-2998 colon = tested on: HCC-2998 colon
MDA-MB-435 = tested on: MDA-MB-435
OVCAR-3 ovarian = tested on: OVCAR-3 ovarian
A549 NSCLC = tested on: A549 NSCLC
NCI-H522 lung = tested on: NCI-H522 lung
SK-MEL-5 melanoma = tested on: SK-MEL-5 melanoma
HOP-62 NSCLC = tested on: HOP-62 NSCLC
KM12 colon = tested on: KM12 colon
RPMI-8226 leukemia = tested on: RPMI-8226 leukemia
TK-10 renal = tested on: TK-10 renal
SF-268 CNS = tested on: SF-268 CNS
UO-31 renal = tested on: UO-31 renal
BT-549 breast = tested on: BT-549 breast
SK-MEL-28 melanoma = tested on: SK-MEL-28 melanoma
OVCAR-5 ovarian = tested on: OVCAR-5 ovarian
SW-620 colon = tested on: SW-620 colon
IGROV1 ovarian = tested on: IGROV1 ovarian

CSCC[C@H](NC(=O)[C@H](CC(C)C)NC(=O)[C@H](Cc1c[nH]cn1)NC(=O)CNC(=O)C1N(C(=O)[C@@H](C)NC(=O)[C@H](Cc2c[nH]c3ccccc23)NC(=O)[C@H](CCC(N)=O)NC(=O)[C@@H](N)CC(N)=O)CSC1(C)C)C(N)=O (stereo not given in full) (H-NQW[dA][ξThz(5,5-Me2)]GHLM-NH2)
TGI (HOP-92 NSCLC): > 25000 nM | TGI (NCI-H226 lung): > 25000 nM | TGI (NCI-H23 lung): > 25000 nM | TGI (UACC-257 melanoma): > 25000 nM

COc1cc(OC)cc(-c2ccc(-c3ccc(C(=N)N)cc3)s2)c1
GI50 (HL-60(TB) leukemia): 1900 nM | TGI (HL-60(TB) leukemia): 3740 nM | GI50 (DU-145 prostate): 1770 nM | TGI (DU-145 prostate): 3240 nM

COc1cc(C=C2c3ccccc3C(=O)c3ccccc32)ccc1OCCCCOc1cc2c(cc1OC)C(=O)N1CCCC1C=N2 (stereo not given)
GI50 (786-0 renal): 448 nM | TGI (786-0 renal): 1110 nM | GI50 (M14 melanoma): 440 nM | TGI (M14 melanoma): 1470 nM | GI50 (LOX IMVI melanoma): 279 nM | TGI (LOX IMVI melanoma): 890 nM | GI50 (SNB-75 CNS): 391 nM | TGI (SNB-75 CNS): 1800 nM | GI50 (U251 CNS): 249 nM | TGI (U251 CNS): 704 nM | GI50 (EKVX NSCLC): 1140 nM | TGI (EKVX NSCLC): 3170 nM | GI50 (T-47D breast): 356 nM | TGI (T-47D breast): 1780 nM | GI50 (UACC-62 melanoma): 407 nM | TGI (UACC-62 melanoma): 1470 nM | GI50 (NCI/ADR-RES ovarian): 1620 nM | TGI (NCI/ADR-RES ovarian): 8830 nM | GI50 (MDA-MB-231 breast): 603 nM | TGI (MDA-MB-231 breast): 11800 nM | GI50 (COLO 205 colon): 469 nM | TGI (COLO 205 colon): 1670 nM | GI50 (SNB-19 CNS): 1020 nM | TGI (SNB-19 CNS): 2560 nM | GI50 (HCT-15 colon): 377 nM | TGI (HCT-15 colon): 1500 nM | GI50 (HOP-92 NSCLC): 244 nM | TGI (HOP-92 NSCLC): 1050 nM | GI50 (HT29 colon): 278 nM | TGI (HT29 colon): 1460 nM | GI50 (ACHN renal): 525 nM | TGI (ACHN renal): 1690 nM | GI50 (A498 renal): 454 nM | TGI (A498 renal): 1610 nM | GI50 (OVCAR-8 ovarian): 310 nM | TGI (OVCAR-8 ovarian): 1260 nM | GI50 (HCT-116 colon): 174 nM | TGI (HCT-116 colon): 409 nM | GI50 (MCF7 breast): 304 nM | TGI (MCF7 breast): 1640 nM | GI50 (SK-OV-3 ovarian): 1410 nM | TGI (SK-OV-3 ovarian): 3890 nM | GI50 (NCI-H460 lung): 703 nM | TGI (NCI-H460 lung): 2350 nM | GI50 (SF-539 CNS): 352 nM | TGI (SF-539 CNS): 1390 nM | GI50 (MALME-3M melanoma): 399 nM | TGI (MALME-3M melanoma): 1590 nM | GI50 (HL-60(TB) leukemia): 142 nM | TGI (HL-60(TB) leukemia): 389 nM | GI50 (PC-3 prostate): 274 nM | TGI (PC-3 prostate): 3560 nM | GI50 (CAKI-1 renal): 314 nM | TGI (CAKI-1 renal): 1020 nM | GI50 (OVCAR-4 ovarian): 456 nM | TGI (OVCAR-4 ovarian): 8450 nM | GI50 (SN12C renal): 458 nM | TGI (SN12C renal): 1880 nM | GI50 (DU-145 prostate): 208 nM | TGI (DU-145 prostate): 479 nM | GI50 (SF-295 CNS): 765 nM | TGI (SF-295 CNS): 2340 nM | GI50 (HCC-2998 colon): 342 nM | TGI (HCC-2998 colon): 816 nM | GI50 (NCI-H226 lung): 1260 nM | TGI (NCI-H226 lung): 3130 nM | GI50 (MDA-MB-435): 227 nM | TGI (MDA-MB-435): 601 nM | GI50 (OVCAR-3 ovarian): 200 nM | TGI (OVCAR-3 ovarian): 458 nM | GI50 (A549 NSCLC): 785 nM | TGI (A549 NSCLC): 3220 nM | GI50 (NCI-H522 lung): 612 nM | TGI (NCI-H522 lung): 9950 nM | GI50 (SK-MEL-5 melanoma): 782 nM | TGI (SK-MEL-5 melanoma): 2050 nM | GI50 (HOP-62 NSCLC): 579 nM | TGI (HOP-62 NSCLC): 1310 nM | GI50 (KM12 colon): 227 nM | TGI (KM12 colon): 608 nM | GI50 (RPMI-8226 leukemia): 101 nM | TGI (RPMI-8226 leukemia): 354 nM | GI50 (TK-10 renal): 302 nM | TGI (TK-10 renal): 896 nM | GI50 (SF-268 CNS): 242 nM | TGI (SF-268 CNS): 726 nM | GI50 (UO-31 renal): 656 nM | TGI (UO-31 renal): 2090 nM | GI50 (BT-549 breast): 91.5 nM | TGI (BT-549 breast): 542 nM | GI50 (SK-MEL-28 melanoma): 192 nM | TGI (SK-MEL-28 melanoma): 430 nM | GI50 (OVCAR-5 ovarian): 581 nM | TGI (OVCAR-5 ovarian): 1450 nM | GI50 (SW-620 colon): 214 nM | TGI (SW-620 colon): 501 nM | GI50 (IGROV1 ovarian): 321 nM | TGI (IGROV1 ovarian): 804 nM | GI50 (NCI-H23 lung): 337 nM | TGI (NCI-H23 lung): 1490 nM | GI50 (UACC-257 melanoma): 1090 nM | TGI (UACC-257 melanoma): 2550 nM
